From paper PMC8497156, “Complexed Crystal Structure of Saccharomyces cerevisiae Dihydroorotase with Inhibitor 5-Fluoroorotate Reveals a New Binding Mode” (Bioinorganic Chemistry and Applications, 2021)

Experiments:
Assay type in all cases: binding
[1] = target: T1, dihydroorotase (ScDHOase-R18A) (Saccharomyces cerevisiae, UniProt P20051, R18A); assay: intrinsic fluorescence quenching titration
T1 construct: gene URA4

[2] = target: T2, dihydroorotase (ScDHOase) (Saccharomyces cerevisiae, UniProt P20051); assay: Kd by intrinsic fluorescence quenching
T2 construct: gene URA4
T2 sequence (P20051 1-364): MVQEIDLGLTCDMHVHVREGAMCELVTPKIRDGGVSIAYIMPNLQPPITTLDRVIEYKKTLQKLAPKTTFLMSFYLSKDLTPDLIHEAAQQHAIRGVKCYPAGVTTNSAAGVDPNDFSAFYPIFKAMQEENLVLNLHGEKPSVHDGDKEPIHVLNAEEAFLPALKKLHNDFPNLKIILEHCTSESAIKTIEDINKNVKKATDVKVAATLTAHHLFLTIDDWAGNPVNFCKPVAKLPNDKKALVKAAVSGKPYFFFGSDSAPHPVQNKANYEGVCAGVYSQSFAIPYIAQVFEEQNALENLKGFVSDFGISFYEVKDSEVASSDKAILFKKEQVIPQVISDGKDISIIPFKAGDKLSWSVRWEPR

[3] = target: T3, dihydroorotase (ScDHOase-T106A) (Saccharomyces cerevisiae, UniProt P20051, T106A); assay: intrinsic fluorescence quenching titration
T3 construct: gene URA4
T3 sequence (P20051 whole entry T106A): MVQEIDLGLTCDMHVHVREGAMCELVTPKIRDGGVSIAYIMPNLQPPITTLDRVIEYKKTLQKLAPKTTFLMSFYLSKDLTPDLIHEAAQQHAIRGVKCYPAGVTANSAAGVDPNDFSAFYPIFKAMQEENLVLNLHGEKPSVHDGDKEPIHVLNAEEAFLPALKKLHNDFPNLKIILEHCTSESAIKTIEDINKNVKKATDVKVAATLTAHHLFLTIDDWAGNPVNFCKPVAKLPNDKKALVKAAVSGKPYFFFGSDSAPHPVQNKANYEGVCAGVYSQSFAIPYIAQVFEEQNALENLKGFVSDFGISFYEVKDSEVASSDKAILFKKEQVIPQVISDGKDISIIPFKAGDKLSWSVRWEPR

T1 sequence (P20051 whole entry R18A): as the sequence (P20051 whole entry T106A) above, with R18A, A106T counted along it

O=C(O)c1[nH]c(=O)[nH]c(=O)c1F [5-FOA, 5-fluoroorotate]
Kd [1]: 144 ± 2.1 µM | Kd [2]: 83.8 ± 1.5 µM | Kd [3]: 115 ± 3.7 µM
